The results in this text go back to the supplement of paper PMC13380429.

Holding throughout (settings): 72 h
The test system of assay [1] is U2OS. The experiment in a line: drug sensitivity score (DSS) for viability; higher = more toxic; extreme values may be limits of the assay.
Assay [2] relates to Vero E6. The assay is described as above.
The subject of assay [3] is Calu-3. The assay is described as above.
Assay [4] has as its system Caco-2. The assay is described as above.
Assay [5] has as its system HepG2. The assay is described as above.
Assay [6] relates to U2OS. Put plainly: relative viability EC50 (midpoint between 100% and the lowest measured viability); higher = less toxic.
In assay [7] the test system is Vero E6. The assay is described as above.
In assay [8] the test system is Calu-3. The assay is described as above.
In assay [9] the test system is U2OS. The experiment in a line: cell viability relative to DMSO; higher = less toxic.
Assay [10] concerns Vero E6. The assay is described as above.
The test system of assay [11] is Calu-3. The assay is described as above.
Assay [12] relates to Caco-2. Described as above.
Assay [13] concerns HepG2. The description is as above.
For assay [14], the system named is HepG2. Put plainly: relative viability EC50 (midpoint between 100% and the lowest measured viability); higher = less toxic.

SMILES strings stand for the structures.

One may read the cell viability as a read-out of living cells in per cent, often relative to untreated cells. Take `C[C@H]1O[C@@H](n2cc(F)c(=O)[nH]c2=O)[C@H](O)[C@@H]1O` [doxifluridine]: the drug sensitivity score in the assay with U2OS [1] was 0; in the assay on Vero E6 [2] it was 0; in the assay on Calu-3 [3], 0; with Caco-2 [4], 1.7; in the assay on HepG2 [5] it was 1.8. Besides, the “relative viability EC50” value in the assay with U2OS [6], with Vero E6 [7] and with Calu-3 [8] was over 10 µM throughout. For the same compound, the cell viability in the assay with U2OS [9] (1 nM) came to 99.9%; with U2OS [9] (10 nM), 99.4%; with U2OS [9] (100 nM), 100%; in the assay on U2OS [9] (1000 nM) it was 101%; with U2OS [9] (10000 nM), 90.6%; in the assay on Vero E6 [10] (1 nM), 108%. Besides, the cell viability in the assay on Vero E6 [10] (10 nM) was 96.1%; with Vero E6 [10] (100 nM) it was 103%; with Vero E6 [10] (1000 nM), 105%; in the assay with Vero E6 [10] (10000 nM) it was 87.5%; in the assay with Calu-3 [11] (1 nM), 98.6%; with Calu-3 [11] (10 nM) it was 116%. The cell viability in the assay with Calu-3 [11] (100 nM) came out at 91.3%; in the assay on Calu-3 [11] (1000 nM) it was 98.9%; in the assay with Calu-3 [11] (10000 nM), 90.9%; in the assay on Caco-2 [12] (1 nM), 82.5%; with Caco-2 [12] (10 nM), 106%; with Caco-2 [12] (100 nM) it was 93.3%. Further, the cell viability was 99.3% with Caco-2 [12] (1000 nM); 65.6% in the assay on Caco-2 [12] (10000 nM); 96.6% in the assay with HepG2 [13] (1 nM); 96.1% in the assay with HepG2 [13] (10 nM); 76.3% with HepG2 [13] (100 nM); 108% in the assay with HepG2 [13] (1000 nM). The cell viability with HepG2 [13] (10000 nM) came out at 56.6%.

For `CCN1CCN(c2cc3c(cc2F)c(=O)c(C(=O)O)cn3C2CC2)CC1` [enrofloxacin], the drug sensitivity score with U2OS [1], in the assay on Vero E6 [2], with Calu-3 [3] and in the assay on HepG2 [5] was 0 in each case.

Consider `Oc1ccc([C@H]2COc3cc(O)ccc3C2)cc1` [equol], for which the drug sensitivity score in the assay with U2OS [1], in the assay with Vero E6 [2], in the assay with Calu-3 [3] and in the assay with HepG2 [5] was 0 throughout. In addition, the “relative viability EC50” value in the assay with U2OS [6], in the assay on Vero E6 [7], in the assay with Calu-3 [8] and in the assay on HepG2 [14] was over 10 µM in each case. Besides, the cell viability with U2OS [9] (1 nM) was found to be 98.5%; in the assay with U2OS [9] (10 nM), 103%; with U2OS [9] (100 nM), 97.9%; with U2OS [9] (1000 nM), 102%; in the assay on U2OS [9] (10000 nM) it was 99.6%; in the assay on Vero E6 [10] (1 nM), 98.6%. In addition, the cell viability with Vero E6 [10] (10 nM) was determined as 102%; in the assay with Vero E6 [10] (100 nM), 96.2%; in the assay with Vero E6 [10] (1000 nM) it was 95.5%; with Vero E6 [10] (10000 nM), 96.6%; with Calu-3 [11] (1 nM), 97.2%; in the assay on Calu-3 [11] (10 nM) it was 111%. The cell viability with Calu-3 [11] (100 nM) worked out at 99.2%; with Calu-3 [11] (1000 nM) it was 92.6%; in the assay on Calu-3 [11] (10000 nM) it was 91.2%; in the assay with HepG2 [13] (1 nM), 94.2%; in the assay with HepG2 [13] (10 nM), 105%; in the assay with HepG2 [13] (100 nM), 110%. The cell viability turned out to be 94.8% with HepG2 [13] (1000 nM) and 97.3% with HepG2 [13] (10000 nM).

`COC(=O)Nc1nc2cc(C(=O)c3ccc(F)cc3)ccc2[nH]1` [flubendazole]: the drug sensitivity score in the assay on U2OS [1] was found to be 3.1; in the assay with Vero E6 [2], 5.5; in the assay on Calu-3 [3], 1.5; in the assay with Caco-2 [4], 4.3; in the assay on HepG2 [5], 7.9. The “relative viability EC50” value in the assay with Vero E6 [7] amounted to 1.38 µM; with HepG2 [14], 0.619 µM. The cell viability with U2OS [9] (1 nM) was 98.2%; with U2OS [9] (10 nM), 107%; with U2OS [9] (100 nM) it was 102%; in the assay with U2OS [9] (1000 nM), 95.4%; in the assay on U2OS [9] (10000 nM), 54.6%; in the assay on Vero E6 [10] (1 nM), 94.9%. Moreover, the cell viability in the assay on Vero E6 [10] (10 nM) was found to be 102%; in the assay on Vero E6 [10] (100 nM), 92.4%; with Vero E6 [10] (1000 nM), 79%; with Vero E6 [10] (10000 nM), 41.8%; in the assay with Calu-3 [11] (1 nM), 94.2%; with Calu-3 [11] (10 nM), 87.9%. The cell viability in the assay with Calu-3 [11] (100 nM) worked out at 98.8%; in the assay with Calu-3 [11] (1000 nM), 97.6%; in the assay with Calu-3 [11] (10000 nM), 72.3%; with Caco-2 [12] (1 nM) it was 93%; in the assay with Caco-2 [12] (10 nM), 96.7%; in the assay on Caco-2 [12] (100 nM), 101%. Besides, the cell viability with Caco-2 [12] (1000 nM) was 87.3%; in the assay on Caco-2 [12] (10000 nM), 54.6%; in the assay with HepG2 [13] (1 nM), 96.8%; with HepG2 [13] (10 nM), 95.7%; in the assay with HepG2 [13] (100 nM), 92.4%; in the assay on HepG2 [13] (1000 nM), 63.4%. The cell viability with HepG2 [13] (10000 nM) came to 40.4%.

Regarding `Cc1cnc(C(=O)NCCc2ccc(S(=O)(=O)NC(=O)NC3CCCCC3)cc2)cn1` [glipizide], the drug sensitivity score with U2OS [1], with Vero E6 [2], in the assay on Calu-3 [3] and with HepG2 [5] was 0 throughout.
